From patent US6265426A, “Triazole derivatives” (Hoffmann-La Roche Inc., priority 1999, dated 2001)
Counter-ions that a name gives are not always drawn.

Molecular target: T1, NMDA receptor (Rattus norvegicus, UniProt P35439+Q00960)
T1 construct: Membranes were prepared by homogenization of the whole brain minus cerebellum and medulla oblongata; from tissue; host or cells: rat whole brain minus cerebellum and medulla oblongata, membranes
Assay: [3H] Compound A (R-(R*,S*)]-α-(4-Hydroxy-phenyl)-β-methyl-4-(phenyl-methyl)-1-piperidine propanol) binding, displacement on rat brain membranes (NMDA receptor subtype)
Details: displacement of 5 nM [3H] Compound A, rat whole brain minus cerebellum and medulla oblongata membranes, pH 7.4, 2 hours at 4° C.
Method: ^3 H R-(R*,S*)]-α-(4-Hydroxy-phenyl)-β-methyl-4-(phenyl-methyl)-1-piperidine propanol (compound A) binding
Male Fullinsdorf albino rats weighing between 150-200 g were used. Membranes were prepared by homogenization of the whole brain minus cerebellum and medulla oblongata with a Polytron (10.000 rpm, 30 seconds), in 25 volumes of a cold Tris-HCl 50 mM, EDTA 10 mM, pH 7.1 buffer. The homogenate was centrifuged at 48.000 g for 10 minutes at 4° C. The pellet was resuspended using the Polytron in the same volume of buffer and the homogenate was incubated at 37° C. for 10 minutes. After centrifugation the pellet was homogenized in the same buffer and frozen at -80° C. for at least 16 hours but not more than 10 days. For the binding assay the homogenate was thawed at 37° C., centrifuged and the pellet was washed three times as above in a Tris-HCl 5 mM, pH 7.4 cold buffer. The final pellet was resuspended in the same buffer and used at a final concentration of 200 μg of protein/ml.
Compound A binding experiments were performed using a Tris-HCl 50 mM, pH 7.4 buffer. For displacement experiments 5 nM of Compound A were used and non specific binding was measured using 10 μM of tetrahydroisoquinoline and usually it accounts for 10% of the total. The incubation time was 2 hours at 4° C. and the assay was stopped by filtration on Whatmann GF/B glass fiber filters (Unifilter-96, Packard, Zutrich, Switzerland). The filters were washed 5 times with cold buffer. The radioactivity on the filter was counted on a Packard Top-count microplate scintillation counter after addition of […] of microscint 40 (Canberra Packard S.A., Zurich, Switzerland).
The effects of compounds were measured using a minimum of 8 concentrations and repeated at least once. The pooled normalized values were analyzed using a non-linear regression calculation program which provide IC50 with their relative upper and lower 95% confidence limits (RS1, BBN, USA). The IC50 value refers to the concentration of a compound needed to give 50% inhibition, i.e., the concentration at which 50% of the ligands bonded to the recept or are displaced.
Concentrations higher than 10 μM were not tested.

T1 sequence (Q00960 27-1482, other chains not shown): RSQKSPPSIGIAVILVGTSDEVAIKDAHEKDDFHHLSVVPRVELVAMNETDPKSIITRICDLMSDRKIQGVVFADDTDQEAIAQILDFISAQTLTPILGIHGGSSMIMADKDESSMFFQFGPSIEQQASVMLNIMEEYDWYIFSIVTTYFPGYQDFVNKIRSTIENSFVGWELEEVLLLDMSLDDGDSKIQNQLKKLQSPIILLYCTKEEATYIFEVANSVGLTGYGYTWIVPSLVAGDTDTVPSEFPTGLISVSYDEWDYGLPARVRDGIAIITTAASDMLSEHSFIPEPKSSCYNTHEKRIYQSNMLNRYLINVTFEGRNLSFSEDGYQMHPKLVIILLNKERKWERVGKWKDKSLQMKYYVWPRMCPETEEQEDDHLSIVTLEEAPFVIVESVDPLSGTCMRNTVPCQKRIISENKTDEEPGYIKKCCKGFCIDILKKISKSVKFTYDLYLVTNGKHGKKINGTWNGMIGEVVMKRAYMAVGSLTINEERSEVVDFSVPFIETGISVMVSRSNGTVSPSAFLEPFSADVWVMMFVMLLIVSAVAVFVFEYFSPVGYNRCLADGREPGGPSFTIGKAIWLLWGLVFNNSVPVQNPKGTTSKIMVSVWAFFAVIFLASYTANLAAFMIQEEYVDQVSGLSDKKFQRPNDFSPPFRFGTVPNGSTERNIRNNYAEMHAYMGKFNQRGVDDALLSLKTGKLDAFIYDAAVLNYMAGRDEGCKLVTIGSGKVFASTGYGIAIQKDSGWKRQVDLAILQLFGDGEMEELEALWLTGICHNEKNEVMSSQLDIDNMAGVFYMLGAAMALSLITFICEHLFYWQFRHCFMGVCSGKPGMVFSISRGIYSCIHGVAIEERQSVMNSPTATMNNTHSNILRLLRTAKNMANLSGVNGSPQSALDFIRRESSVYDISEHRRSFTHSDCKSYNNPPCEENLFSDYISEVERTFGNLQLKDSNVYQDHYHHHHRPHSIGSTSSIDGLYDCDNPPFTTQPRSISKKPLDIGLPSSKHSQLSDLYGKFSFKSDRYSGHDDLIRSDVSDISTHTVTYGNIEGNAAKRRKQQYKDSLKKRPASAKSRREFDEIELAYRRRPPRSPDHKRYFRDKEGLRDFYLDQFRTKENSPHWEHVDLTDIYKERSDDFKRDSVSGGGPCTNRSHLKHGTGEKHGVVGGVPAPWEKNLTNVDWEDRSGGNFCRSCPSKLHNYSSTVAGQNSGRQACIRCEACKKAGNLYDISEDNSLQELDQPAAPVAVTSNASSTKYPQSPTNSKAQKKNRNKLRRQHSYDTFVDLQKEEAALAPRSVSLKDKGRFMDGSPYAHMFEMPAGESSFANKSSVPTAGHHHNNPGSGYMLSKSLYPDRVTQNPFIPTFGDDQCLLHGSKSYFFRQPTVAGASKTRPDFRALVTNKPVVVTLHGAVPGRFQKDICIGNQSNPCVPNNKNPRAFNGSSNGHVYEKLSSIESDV

Row | SMILES | IC50
1 | CCN(CC)Cc1cccc(-c2n[nH]c(-c3ccc(OC)cc3)n2)c1 [Example 52, Diethyl-{3-[5-(4-methoxy-phenyl)-1H-[1,2,4]triazol-3-yl]-benzyl}-amine hydrochloride] | 330 nM
2 | COc1ccc(-c2nc(-c3cccc(CN)c3)n[nH]2)cc1 [Example 73, 3-[5-(4-Methoxy-phenyl)-1H-[1,2,4]triazol-3-yl]-benzylamine hydrochloride] | 8.3 nM

Other lines, results leading:

Row | IC50 | SMILES
3 | 58 nM | COc1ccc(-c2nc(-c3cccc(CN4CCCC4)c3)n[nH]2)cc1 [Example 51, 5-(4-Methoxy-phenyl)-3-(3-pyrrolidin-1-ylmethyl-phenyl)-1H-[1,2,4]triazole hydrochloride]
4 | 1000 nM | c1cc(CN2CCCC2)cc(-c2n[nH]c(-c3ccc4ccccc4c3)n2)c1 [Example 25, 5-Naphthalen-2-yl-3-(3-pyrrolidin-1-ylmethyl-phenyl)-1H-[1,2,4]triazole hydrochloride]
5 | 87 nM | Clc1ccc(-c2nc(-c3cccc(CN4CCCC4)c3)n[nH]2)cc1 [Example 49, 5-(4-Chloro-phenyl)-3-(3-pyrrolidin-1-ylmethyl-phenyl)-1H-[1,2,4]triazole hydrochloride]
